IC50 data for 4 molecules are collected here from patent US4891360A, “6-amino anthracyclines, process for their preparation and use thereof” (Farmitalia Carlo Erba S.r.l., priority 1986, dated 1990).

Each structure is given as a SMILES string. In brackets after ≈: the same amount, converted by molar mass. Read-outs that look alike come from different tables or passages of the source.

Experiment [1] concerns Human Colon Adenocarcinoma Cell Line resistant to doxorubicin (LoVo/DX). Nature of the experiment: In vitro cytotoxicity, colony inhibition test on human colon adenocarcinoma cell line resistant to doxorubicin (LoVo/DX). It counts as cell-based. The note with it: read-out: ID50 (dose which gives 50% reduction of cell number in comparison with untreated controls), LoVo/DX. The procedure: (§1) Compound II (4-demethoxy-6-deoxy-6-aminodaunorubicin) and Compound III (4-demethoxy-6-deoxy-6-aminodoxorubicin) have been tested "in vitro" against Human Colon Adenocarcinoma Cell Line sensitive to doxorubicin (LoVo) and resistant to doxorubicin (LoVo/DX) in comparison with daunorubicin (DNR) and doxorubicin (DX).
(§2) In Vitro cytotoxicity (a) on human colon adenocarcinoma cell
(§3) line sensitive (LoVo) and resistant to doxorubicin (LoVo/DX)
(§4) (a)Colony inhibition test: 4 hours treatment
(§5) (b)dose which gives 50% reduction of cell number in comparison with
(§6) In Vitro cytotoxicity (a) on human colon adenocarcinoma
(§7) cell line sensitive (LoVo) and resistant to doxorubicin
(§8) (LoVo/DX) of 4-demethoxy-6-deoxy-6-amino DX
(§9) (a)Colony inhibition test: -24 hours treatment

Experiment [2] has as its system Human Colon Adenocarcinoma Cell Line sensitive to doxorubicin (LoVo). Nature of the experiment: In vitro cytotoxicity, colony inhibition test on human colon adenocarcinoma cell line sensitive to doxorubicin (LoVo). In kind it is cell-based. The note with it: read-out: ID50 (dose which gives 50% reduction of cell number in comparison with untreated controls), LoVo. The procedure: as §1, §2, §3, §4, §5, §6, §7, §8, §9

[3] abbreviates: Table 1, colony inhibition test, 4 hours treatment.
The mark [4] stands for this setting: Table 2, colony inhibition test, 24 hours treatment.

As for `CC(=O)[C@]1(O)Cc2c(O)c3c(c(N)c2[C@@H](O[C@H]2C[C@H](N)[C@H](O)[C@H](C)O2)C1)C(=O)c1ccccc1C3=O` [Compound II, 4-demethoxy-6-deoxy-6-amino daunorubicin], the IC50 in experiment [1] (setting [3]) was 4.4 µg/mL (≈ 8.86 µM); in experiment [2] (setting [3]), 0.09 µg/mL (≈ 0.181 µM).
Turning to `C[C@@H]1O[C@@H](O[C@H]2C[C@](O)(C(=O)CO)Cc3c(O)c4c(c(N)c32)C(=O)c2ccccc2C4=O)C[C@H](N)[C@@H]1O` [Compound III, 4-demethoxy-6-deoxy-6-amino doxorubicin], the IC50 in experiment [1] (setting [4]) stood at 1.15 µg/mL (≈ 2.24 µM); in experiment [2] (setting [4]), 0.099 µg/mL (≈ 0.193 µM).
On to `COc1cccc2c1C(=O)c1c(O)c3c(c(O)c1C2=O)C[C@@](O)(C(C)=O)C[C@@H]3O[C@H]1C[C@H](N)[C@H](O)[C@H](C)O1` [DNR, daunorubicin], for which the IC50 in experiment [1] (4 h) was 2.36 µg/mL (≈ 4.47 µM); in experiment [2] (4 h), 0.042 µg/mL (≈ 0.0796 µM).
Regarding `COc1cccc2c1C(=O)c1c(O)c3c(c(O)c1C2=O)C[C@@](O)(C(=O)CO)C[C@@H]3O[C@H]1C[C@H](N)[C@H](O)[C@H](C)O1` [DX, doxorubicin], the IC50 in experiment [1] (24 h) was found to be 0.833 µg/mL (≈ 1.53 µM); in experiment [2] (24 h), 0.0266 µg/mL (≈ 0.0489 µM).
